Measurements published in patent US20220041691A1, “METHODS FOR DIAGNOSING OR TREATING POST-TRAUMATIC STRESS DISORDER, AND COMPOSITIONS THEREFOR” (Centre for Addiction and Mental Health, priority 2018, published 2022).
Entries after “also recorded” stand apart in the source; their conditions may differ.

Legend:
GR-FKBP52 complex = experiment: Co-immunoprecipitation of GR-FKBP52 complex in brain of fear-conditioned mice; assay type: in vivo; conditions: fear-conditioned mouse brain, 3 nmol/g i.p; vs TAT alone or saline; p<0.05, n=3
Procedure: (§1) Co-immunoprecipitation and Western blot analyses were performed as previously described.^24, 25, 26 For co-immunoprecipitation, 500˜1000 μg solubilized protein was extracted from whole mouse brain and incubated with primary antibody or control IgG (2˜4 μg) for 4 hrs at 4° C., followed by the addition of 25 μl protein A/G plus agarose (Santa Cruz Biotechnology) for 12 hrs. Pellets were washed, boiled for 5 min in SDS sample buffer and subjected to SDS-PAGE. 50˜100 μg of total protein extract was used as control in each experiment. After transfer of proteins into nitrocellulose, membranes were Western blotted with the primary antibodies. The intensity of protein level was quantified by densitometry (software: ImageLab, Bio-Rad).

[1] = system: GR and FKBP52 colocalization in primary neurons; experiment: Immunocytochemistry of GR and FKBP52 in primary mouse neurons; assay type: cell-based
Procedure: Cortical tissues from embryonic day (E14) mouse brains were dissected out, incubated with 0.25% trypsin for 15 min at 37° C., and dissociated by mechanical trituration. Neurons were then plated at a desired density onto glass coverslips previously coated with 0.1 mg/ml poly-d-lysine, and grown in Neurobasal medium with 1× Glutamax, 1×B27, 100 U/ml penicillin and 100 μg/ml streptomycin in an incubator (37° C., 5% CO2). Either 10 μM of TAT-GRpep, 10 μM TAT-control peptide or saline were added in culture plates for 45 min in advance at 8 days in vitro (8 DIV).
Cultured neurons were fixed in 4% PFA/4% sucrose, permeabilized with 0.1M PBS containing 0.1% Triton X-100 for 10 min, and blocked for 1 hour with 1% bovine serum albumin in PBS at room temperature. They were incubated with primary antibodies overnight at 4° C. and secondary antibodies for 1 hour at room temperature. The following primary antibodies were used: anti-GR (1:200; Thermo), anti-FKBP51 (1:200; Abcam) and anti-FKBP52 (1:200; Abcam). […] DAPI was used to stain cell nuclei.

fear-conditioned mice = experiment: Cued fear conditioning, systemic (i.p.) peptide delivery; assay type: in vivo, mouse
Procedure: Next, testing was performed to determine whether TAT-GRpep can block the emergence of PTSD-like fear-related behaviours when administrated systemically. Animals underwent five rounds of CS-US pairings followed by 5 days of extinction training before the expression of fear in response to the learned cue was assessed (FIG. 4A). Mice were injected with either TAT-GRpep or TAT intraperitoneally (3 nmol/g, i.p.) one hour before the test.
Furthermore, testing was performed to determine whether disrupting the GR-FKBP51 complex reduced consolidation of cued fear memory. Thus, TAT or TAT-GRpep was administered two hours after the end of fear conditioning training (FIG. 4C), before five consecutive daily extinction sessions of cue exposure without shock. […] This may therefore indicate a potential approach to both preventing and treating PTSD-like behaviour in the aftermath of trauma, for example.
Animals were first given a five-minute habituation to the apparatus (Habitest, Colbourne Instruments). Then, animals were exposed to 30 seconds of cue exposure (an in-house white light), which co-terminated with one second of foot-shock (0.5 mA). The cue exposure and foot-shock were repeated five times, intermitted by 5-minute inter-trial intervals. Following the conditioning, animals were subjected to 2-5 days of extinction before the assessment of their cued fear memory, which consisted of 15 rounds of 30-second cue exposure, with 30-second inter-trial intervals (adapted from Andero et al.).^48
The expression of fear (in a different context from training) was assessed 24 hours after the last extinction training. The assessment consisted of a three-minute period of habituation (absence of CS) and a sequent three-minute trial of conditioned cues. The duration of freezing behaviors was recorded by a blinded experimenter. Peptide treatment was either administered 2 hours after the conditioning or 30 minutes before the behavioral assessment.

GR-FKBP51 complex = target: T1, GR-FKBP51 complex (Mus musculus, UniProt Q64378); experiment: Co-immunoprecipitation of GR-FKBP51 complex in brain and lymphocyte lysate of fear-conditioned mice injected with peptide; assay type: in vivo
T1 construct: from tissue; host or cells: C57Bl/6 mouse brain (acute slices; whole-brain lysate) and blood lymphocytes
T1 sequence (Q64378 1-456): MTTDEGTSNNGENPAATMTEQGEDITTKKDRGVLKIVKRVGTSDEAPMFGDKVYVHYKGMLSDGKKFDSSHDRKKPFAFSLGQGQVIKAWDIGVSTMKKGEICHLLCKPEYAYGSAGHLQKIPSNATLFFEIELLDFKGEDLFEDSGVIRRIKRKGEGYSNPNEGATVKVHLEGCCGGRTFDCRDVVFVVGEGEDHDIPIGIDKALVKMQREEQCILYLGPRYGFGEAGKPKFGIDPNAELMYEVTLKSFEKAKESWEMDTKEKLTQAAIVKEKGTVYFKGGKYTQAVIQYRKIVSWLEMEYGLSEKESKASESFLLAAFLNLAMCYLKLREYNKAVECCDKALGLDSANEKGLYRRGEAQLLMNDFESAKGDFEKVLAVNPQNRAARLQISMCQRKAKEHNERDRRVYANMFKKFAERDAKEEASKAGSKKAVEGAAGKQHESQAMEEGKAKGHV
Procedure: Furthermore, testing was performed to determine whether disrupting the GR-FKBP51 complex reduced consolidation of cued fear memory. Thus, TAT or TAT-GRpep was administered two hours after the end of fear conditioning training (FIG. 4C), before five consecutive daily extinction sessions of cue exposure without shock.
as §1

nuclear GR = experiment: Nuclear protein isolation, nuclear GR in mouse brain slices; assay type: cell-based; conditions: 10 μM, 30 min, vs TAT or untreated controls, p<0.001, n=3
Procedure: To test this hypothesis, the effect of TAT-GRpep on GR-FKBP52 levels was examined using co-immunoprecipitation. […] Similar results were also obtained using confocal microscope in primary mouse neuron cultures.
Acute brain slices (350 μm thick) were prepared from C57Bl/6 mice with a McIlwain tissue chopper (Mickle Laboratory Engineering, Gomshall, United Kingdom). After being dissected from the brain, mouse cerebral hemispheres were left for 5 min in ice-cold artificial cerebrospinal fluid (aCSF) containing 126 mM NaCl, 2.5 mM KCl, 1 mM MgCl2, 1 mM CaCl2, 1.25 mM KH2PO4, 26 mM NaHCO3 and 20 mM glucose, which was bubbled continuously with carbogen (95% O2/5% CO2). Freshly cut slices were placed in an incubating chamber with carbogenated aCSF and recovered from stress at 37° C. for 1 hour. Slices were then treated with TAT or TAT-GRpep and harvested for Western blot analysis.
Nuclear protein isolation assays were performed in acute mouse brain slices or mouse brain tissue using the Nuclear Protein Extraction Kit (Bio Basic Inc., Amherst, N.Y.). Briefly, after treatment with TAT or TAT-GRpep, mouse brain slices were harvested for nuclear protein extraction according to the manufacturer's instructions.

Sequence: GRKKRRQRRRPQSPWRSDLLIDENCLL (Amino Acid Sequence of TAT-GRpep Peptide)
- GR-FKBP52 complex (FKBP52 co-immunoprecipitated by GR antibody) (GR-FKBP52 complex): more FKBP52 was co-immunoprecipitated by GR antibody; also recorded: significant increases in GR-FKBP52 complex levels
- nuclear GR levels ([1]; primary mouse neuron cultures, confocal microscope): markedly increased nuclear GR levels
- nuclear GR-FKBP52 colocalization ([1]; primary neurons 8 DIV, 10 μM, 45 min): marked increase in nuclear GR-FKBP52 colocalization
- colocalization between GR and FKBP52 ([1]; primary neurons 8 DIV, 10 μM, 45 min, vs saline and control peptide): significantly more colocalization between GR and FKBP52; also recorded: co-localized more
- duration of freezing with the CS (fear-conditioned mice; 3 nmol/g i.p. one hour before the test, after 5 days of extinction training, three-minute cue trial, p<0.05): 34.1 ± 6.7 s
- freezing behavior during habituation period without CS (fear-conditioned mice; 3 nmol/g i.p. one hour before the test, TAT-GRpep vs control group, p=NS): no difference in freezing behavior
- cued freezing behaviours (FIG. 4D) (fear-conditioned mice; peptide administered after fear conditioning, before extinction sessions, p<0.05): reduced cued freezing behaviours
- duration of freezing with the CS (consolidation of cued fear memory) (fear-conditioned mice; peptide administered two hours after end of fear conditioning, tested 24 hours after last of five daily extinction sessions, p<0.05): 55.9 ± 3.3 s
- GR-FKBP51 complex level in brain (co-immunoprecipitation) (GR-FKBP51 complex; brain lysate of fear-conditioned mice injected with TAT or TAT-GRpep, p<0.05, n=3): able to block the increase of GR-FKBP51 complex; also recorded: disrupt the GR-FKBP51 complex
- GR-FKBP51 complex level in lymphocyte lysate / peripheral blood (co-immunoprecipitation) (GR-FKBP51 complex; lymphocyte lysate from blood of fear-conditioned mice, p<0.01 vs TAT, n=4): able to disrupt the GR-FKBP51 complex
- nuclear GR level / proportion of GR in the nucleus (nuclear GR): higher levels of nuclear GR; also recorded: significantly increased
